In paper PMC11312813, “An Optimized Peptide Antagonist of CXCR4 Limits Survival of BCR–ABL1-Transformed Cells in Philadelphia-Chromosome-Positive B-Cell Acute Lymphoblastic Leukemia” (International Journal of Molecular Sciences, 2024):
Counter-ions that a name gives are not always drawn.

Legend:
697 cells = assay: Real-time cell growth by IncuCyte, 697; format: cell-based, human; conditions: 1 µM, 96 h; n = 3
Description: (§1) The cells were plated in 100 μL complete medium.

[1] = tested on: TKO-EV cells (untransformed mouse BM pro-B cells); assay: Real-time cell growth analysis by IncuCyte, untransformed TKO-EV cells; conditions: 1 µM, 96 h; n = 3
Description: A flat-bottom 96-well plate was coated with 0.01% poly-L ornithine (#P4957, Sigma-Aldrich, Hamburg, Germany) for 1 h at room temperature (RT). BCR–ABL1, SupB15, and 697 cells were counted as 0.5 × 10^5 cells/well, while TKO-BCR–ABL1 and TKO-EV cells as 1 × 10^5 cells/well, which were labeled with IncuCyte Cytotox Red dye (#4632, Sartorius, Ulm, Germany) as per the manufacturer’s protocol. The cells were plated in 100 μL complete medium. […] Plate was prewarmed at 37 °C for 30 min prior to placing in the IncuCyte chamber. Scanning was conducted every two hours for total of 4 days. Images were acquired using a 20X objective in phase contrast and fluorescence mode at 4 images/well and analyzed using the cell-by-cell analysis module of IncuCyte software version 2020B (Essen Bioscience, Ann Arbor, MI, USA).

SupB15 cells = assay: Real-time cell growth by IncuCyte, SupB15; format: cell-based, human; conditions: 1 µM, 96 h; n = 3
Description: as §1

CXCR4 = conditions: ref [14],[17]; cited from earlier work
[2] = tested on: BCR–ABL1-transformed mouse B cells; assay: Real-time cell growth analysis by IncuCyte (GFP+ cell enrichment); format: cell-based; conditions: 1, 5 and 10 µM, over 96 h; n = 4–5
Description: A flat-bottom 96-well plate was coated with 0.01% poly-L ornithine (#P4957, Sigma-Aldrich, Hamburg, Germany) for 1 h at room temperature (RT). […] The cells were plated in 100 μL complete medium. […] Plate was prewarmed at 37 °C for 30 min prior to placing in the IncuCyte chamber. Scanning was conducted every two hours for total of 4 days.

| Compound | CXCL12-induced calcium signaling (CXCR4) | further results |
| --- | --- | --- |
| Cc1ccc(NC(=O)c2ccc(CN3CCN(C)CC3)cc2)cc1Nc1nccc(-c2cccnc2)n1 [Imatinib, Imatinib mesylate, reference compound] |  | 697 cell growth vs DMSO (697 cells): no effect on the 697 cells; Survival/growth of TKO-EV cells [1]: no effect on the TKO-EV cells; SupB15 cell growth vs DMSO (SupB15 cells): significantly reduced SupB15 cell growth |
| ILRWSRK * (Glu-Pal)-NH2 [JM#192, fatty-acid-conjugated optimized EPI-X4 derivative] | block CXCL12-induced calcium signaling |  |
| ILRWSRK * (Glu-Pal)LPCVS [JM#143, fatty-acid-conjugated optimized EPI-X4 derivative] | block CXCL12-induced calcium signaling |  |
| ILRWSRKLPCVS [JM#21] | block CXCL12-induced calcium signaling |  |
| IVRWSKK * (Pal)VPCVS [JM#169, fatty-acid-conjugated optimized EPI-X4 derivative] | block CXCL12-induced calcium signaling | GFP enrichment (BCR–ABL1 cell growth) vs DMSO [2]: significant reduction in cell growth only after 72 h |
| IVRWSKKVPCVS [WSC02, optimized 12-mer EPI-X4 derivative] | block CXCL12-induced calcium signaling |  |
